In patent US20020045603A1, “Method of inhibiting membrane-type matrix metalloproteinase” (The Research Foundation of State University of New York, priority 1998, published 2002):
Entries after “also recorded” stand apart in the source; their conditions may differ. Each block holds one compound with its values, some of them ahead of it.

How the values were obtained:
[1] = Solubility in aqueous systems; assay type: physicochemical
[2] = rat, in vivo, po
[3] = biological target: T1, MT1-MMP (Homo sapiens, UniProt P50281); assay: Direct digestion of [3H-methyl]-gelatin by membrane fraction of MT1-MMP-transfected COS-1 cells; assay type: biochemical; details: 18 hr at 37° C.
Experimental: Confluent MT1-MMP-transfected COS-1 cells (2×10^7 cells) were harvested following treatment with trypsin-EDTA and washed thoroughly. Cells were suspended in 25 mM sucrose, 5 mM MgCl2 in Tris base, pH 7.4, and then subjected to nitrogen (N2) cavitation at 1000 p.s.i. for 30 min at 4° C. Whole cells and nuclei were removed by centrifugation at 770×g for 10 min, and the postnuclear supernatant was centrifuged at 6,000×g for 15 min to remove heavy organelles. The supernatant was centrifuged at 100,000×g for 60 min, and the cell membrane fraction, comprising plasma membranes, Golgi, and ribosomes, was recovered in the pellet. The 100,000×g supernatant was designated as cytosol.
Radiolabeled (^3H) collagen type I was denatured, to unravel the triple helix to produce [^3H-methyl]-gelatin. When separated by SDS-PAGE, and examined by autoradiography, the denatured collagen yields three bands: α(˜100 kDa), β(˜200 kDa), and γ(˜300 kDa), corresponding to the various components of the collagen in the sample. The tritiated gelatin substrate was incubated with a membrane fraction obtained by MT1-MMP-transfected COS-1 cells as described above. The gelatinolytic activity was calculated as % lysis of the α, β, and γ intact gelatin components assessed by laser densitometer scanning of the fluorogram.

[4] = biological target: T1, MT1-MMP; assay: Activation of pro-gelatinase A by MT1-MMP membrane fraction, gelatin zymography; assay type: biochemical; details: 10, 20, and 50 μM; 18 h at 37° C.
Experimental: Recombinant pro-gelatinase A (72 kDa type IV gelatinase) can be activated to from 62 kDa active gelatinase by MT-MMP-containing plasma membrane fractions. To examine the ability of a tetracycline compound to inhibit this gelatinase activating property of MT-MMP, membrane fractions obtained according to Example 1B were incubated with recombinant human pro-gelatinase A for 18 h at 37° C. with or without CMT-3, and examined by zymography to evaluate enzyme activation.
Specifically, pro-MMP-2 was obtained from the culture-conditioned medium from MMP-2-transfected COS-1 cells.
Conditioned media were collected from the cultures that had been treated with CMT-3 for 2 days. Media were then incubated with SDS-gel electrophoresis sample buffer for 30 min at room temperature, and then analyzed by gel electrophoresis on SDS-polyacrylamide gel (10%) containing gelatin (1 mg/mL; Novex, Inc.). Following electrophoresis, the gels were washed twice with 0.25% TRITON® X-100 for 30 min each (to renature the gelatinase), and incubated for 18-24 hr at 37° C. in a Tris-HCl buffer, pH 7.4 (see, e.g., Lokeshwar 1993). After incubation, the gels were briefly rinsed in distilled water and stained with 0.25% Coomassie brilliant blue R250. The location of gelatinase activity in the gels is visible as a colorless area on an otherwise uniform blue background, indicative of digested gelatin.

[5] = biological target: T1, MT1-MMP; assay: Caseinolytic activity of recombinant MT1-MMP, casein zymography; assay type: biochemical
Experimental: In FIG. 3A, the proteolytic activity of MT1-MMP and its inhibition by a tetracycline compound was assessed using casein zymography: […]

[6] = biological target: T1, MT1-MMP; assay: Conversion of pro-gelatinase A to active gelatinase A by recombinant MT1-MMP, SDS-PAGE; assay type: biochemical
Experimental: The proteolytic activity of MT1-MMP was assessed using gelatinase A zymography. Pure recombinant pro-MMP-2 (72 kDa gelatinase or pro-gelatinase A) and MT1-MMP were co-incubated in the presence or absence of CMT-3 (0.5-3.0 μM). After incubation, the enzyme mixture was examined by SDS-PAGE and the protein (enzyme) bands were stained with Coomassie brilliant blue.

[7] = tested on: MG-63 osteosarcoma cells; assay: MMP-2 expression and MT1-MMP-dependent activation of pro-MMP-2, concanavalin A-treated MG-63 cells, zymography; assay type: cell-based, human
Experimental: MG-63 cells, an osteosarcoma cell line, were grown in culture and treated with 40 μg/mL concanavalin A to induce MT1-MMP-dependent activation of pro-MMP-2. Culture-conditioned medium was collected, as a source of pro-MMP-2, and was incubated in the presence of the membrane fraction of COS-1 cells transfected to express MT1-MMP.

[8] = tested on: HT-1080 fibrosarcoma cells; assay: Matrigel invasion of HT-1080 fibrosarcoma cells; assay type: cell-based, human; details: for concentration of maximal inhibition of invasion: 24 hr, 10% serum
Experimental: HT-1080 cells were allowed to invade through Matrigel (Collaborative Research, Bedford, Mass.) for 24 hr in medium containing 10% serum. CMT-3 or CMT-8 were added to the medium to assess their ability to inhibit invasivity of the cells. CMT-3 was tested at final concentrations of 1 μM or 10 μM; CMT-8 was tested twice at a final concentration of 50 μM. The invading cells were counted, and the relative numbers of cells were expressed as means of triplicate measurements.

[9] = tested on: HT-1080 fibrosarcoma cells; assay: Transwell migration of HT-1080 fibrosarcoma cells; assay type: cell-based, human; details: 18 hr, 10% serum; for inhibition of HT-1080 fibrosarcoma cell migration: 0.5 μM
Description: HT-1080 cells were allowed to migrate in the presence of medium containing 10% serum for 18 hr in Transwell chambers (Costar, Cambridge, Mass.). […] The data are expressed as means of triplicate measurements.

[10] = tested on: studied cell lines; assay: Cytotoxicity to the cells under the conditions used; assay type: cell-based; details: data not shown
[11] = tested on: cell surface integrins; assay: Blocking of cell surface integrins; assay type: cell-based; details: data not shown
[12] = tested on: studied cell lines; assay: Initial attachment and spreading of cells on extracellular matrix or Matrigel substrate; assay type: cell-based; details: data not shown
[13] = Serum half-life; details: in vivo
[14] = tested on: normal cells; assay: Cytotoxicity in normal cells; assay type: cell-based
[15] = tested on: prostate and melanoma tumor; details: in vivo; Lokeshwar et al. 1998; Seftor et al. 1998; cited from earlier work

Structure (SMILES): CN(C)C1C(=O)C(C#N)=C(O)C2(O)C(=O)C3=C(O)c4c(O)cccc4C(C)(O)C3CC12 (stereo not shown) [CMT-2, tetracyclinonitrile]
solubility in aqueous systems [1]: low solubility | blood levels [2]: no detectable blood levels

Structure (SMILES): NC(=O)C1=C(O)C[C@@H]2C[C@@H]3Cc4cccc(O)c4C(=O)C3=C(O)[C@]2(O)C1=O [CMT-3, 6-demethyl-6-deoxy-4-de(dimethylamino)tetracycline]
inhibition of gelatinolytic activity ([3]; 5 μM): 16.3% | inhibition of gelatinolytic activity ([3]; 10 μM): 35% | inhibition of gelatinolytic activity ([3]; 20 μM): 32% | inhibition of MT1-MMP-induced activation of pro-gelatinase A [4]: inhibited | IC50 [5]: 1000 to 3000 nM | inhibition of caseinolytic activity ([5]; 0.5, 1.5, and 3.0 μM, 50 ng MT1-MMP, β-casein 52 μM): progressive inhibition of caseinolytic activity by increasing | inhibition of the formation of the smaller molecular weight species of gelatinase A ([6]; 3.0 μM): essentially completely inhibits | inhibition of the conversion of pro-gelatinase A to active gelatinase A ([6]; 0.5, 1.0, 1.5 and 3.0 μM, 50 ng recombinant MT1-MMP): progressive inhibition | gelatin-degrading activity of incubated medium ([7]; 0.5 μM to 3.5 μM): inhibited | percent of activated MMP-2 in the total expressed MMP-2 ([7]; 0.5 μM to 3.5 μM): decreased in a dose-dependent fashion | active MMP-2 ([7]; 3.0 μM and 3.5 μM): no active MMP-2 was detected | prevention of invasion in comparison to CMT-8 [8]: slightly more effective | concentration of maximal inhibition of invasion [8]: 50 µM | inhibition of HT-1080 fibrosarcoma cell migration [9]: clear inhibition; also recorded: Effective inhibition | concentration of maximal inhibition of migration [9]: 50 µM | cytotoxicity to the cells [10]: not cytotoxic | blocking of cell surface integrins [11]: did not block | initial attachment and spreading of studied cell lines [12]: did not prevent | serum half-life [13]: approximately 28 hr | cytotoxicity in normal cells [14]: little or substantially no cytotoxicity | tumor growth and metastasis [15]: suppress prostate and melanoma tumor growth and metastasis

Structure (SMILES): C[C@H]1c2cccc(O)c2C(O)=C2C(=O)[C@]3(O)C(O)=C(C(N)=O)C(=O)C[C@@H]3[C@@H](O)[C@@H]21 [CMT-8, 6-deoxy-5α-hydroxy-4-de(dimethylamino)tetracycline]
concentration of maximal inhibition of invasion [8]: 50 µM | inhibition of HT-1080 fibrosarcoma cell migration [9]: clear inhibition; also recorded: Effective inhibition | concentration of maximal inhibition of migration [9]: 50 µM | cytotoxicity to the cells [10]: not cytotoxic | blocking of cell surface integrins [11]: did not block | initial attachment and spreading of studied cell lines [12]: did not prevent

inhibition of caseinolytic activity ([5]; 2 mM): did inhibit
Structure (SMILES): O=C(O)CN(CCN(CC(=O)O)CC(=O)O)CC(=O)O [EDTA, reference compound]

Structure (SMILES): O=S(=O)(F)Cc1ccccc1 [PMSF, reference compound]
inhibition of caseinolytic activity ([5]; 0.5 mM): did not inhibit
